# Source: US20090023630A1, “Methods and Means for Use in Diagnostics and Treatment of Diabetes” (priority 2005, published 2009)
# Ends that are not written are not given here.
# Molecular target: HLA-A*0201 (Homo sapiens, UniProt P04439, D140Y/D185E/D98H/E176V/E277Q/G131W/G231S/I119V/I121R/I166T/I218V/L300P/L318F/N151K/N90K/P208A/P217A/Q86G/Q94H/R138H/R169H/T345S)
# Assay: Peptide-HLA binding (competition with Fl-labeled HLA-A*0201 binding peptide)
# Settings: not given
# Protocol: Peptide binding was assessed as described (21). […] HLA-bound and non-bound Fl-labeled peptides were separated by HPLC gel permeation chromatography with fluorescence detection. The concentration at which the test peptide reduced the amount of HLA-bound Fl-labeled peptide by 50% (IC50) was calculated using non-linear regression analysis. To select candidate HLA-A*0201 binding peptides from the insulin B chain, the molecule was screened for HLA-A*0201 binding motif containing peptides with a combination of two known binding prediction algorithms (18).
row,Compound,IC50
1,ALYLVCGER [Peptide 14-22],90200 nM
2,HLCGSHLVEA [Peptide 5-14],60 nM
3,HLVEALYLVCG [Peptide 10-20],190 nM
4,LVEALYLVC [Peptide 11-19],3600 nM
5,SHLVEALYLV [Peptide 9-18],1370 nM

# Same assay, conditions: peptide concentration needed to inhibit binding of FL-labeled reference peptide for 50%; read-out: IC50 (binding affinity for HLA-A*0201)
row,IC50,Compound
1,> 100000 nM,CC(C)C[C@H](NC(=O)[C@H](C)N)C(=O)N[C@@H](Cc1ccc(O)cc1)C(=O)N[C@@H](CC(C)C)C(=O)N[C@H](C(=O)N[C@@H](CS)C(=O)NCC(=O)N[C@@H](CCC(=O)O)C(=O)N[C@@H](CCCNC(=N)N)C(=O)NCC(=O)O)C(C)C [Peptide 14-23]
2,2260 nM,ALYLVCGERGF [Peptide 14-24]
3,3730 nM,GSHLVEALYLV [Peptide 8-18]
4,440 nM,"HLCGSGLVEAL [Peptide 5-15, HLCGSGLVEAL]"
5,1750 nM,HLVEALYLVC [Peptide 10-19]
6,9120 nM,QHLCGSHLV [Peptide 4-12]
7,59500 nM,SHLVEALYL [Peptide 9-17]
8,2300 nM,YLVCGERGFF [Peptide 16-25]
9,8590 nM,YLVCGERGFFY [Peptide 16-26]
